Reference: PMC10404671, “Deciphering the biosynthesis of a novel lipid in Mycobacterium tuberculosis expands the known roles of the nitroreductase superfamily” (The Journal of Biological Chemistry, 2023)

Tests used:
TyzA = target: T1, TyzA (Mycobacterium tuberculosis, UniProt P95232)
T1 construct: gene Rv2336

TyzC = target: T2, TyzC (Mycobacterium tuberculosis, UniProt P95233)
T2 construct: gene Rv2337c

TyzB = target: T3, TyzB (Mycobacterium tuberculosis, UniProt P95234)
T3 construct: gene moeW
T3 sequence (P95234 entry or part of it): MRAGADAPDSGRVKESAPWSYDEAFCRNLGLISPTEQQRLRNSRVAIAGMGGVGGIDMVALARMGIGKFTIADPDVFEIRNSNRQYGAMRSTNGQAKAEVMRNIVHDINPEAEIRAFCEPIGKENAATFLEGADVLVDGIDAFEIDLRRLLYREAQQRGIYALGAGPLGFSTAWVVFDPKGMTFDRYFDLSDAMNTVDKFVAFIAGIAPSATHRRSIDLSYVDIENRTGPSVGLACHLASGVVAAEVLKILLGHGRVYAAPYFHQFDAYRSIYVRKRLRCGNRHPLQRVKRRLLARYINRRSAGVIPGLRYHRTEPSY

T2 sequence (P95233 entry or part of it): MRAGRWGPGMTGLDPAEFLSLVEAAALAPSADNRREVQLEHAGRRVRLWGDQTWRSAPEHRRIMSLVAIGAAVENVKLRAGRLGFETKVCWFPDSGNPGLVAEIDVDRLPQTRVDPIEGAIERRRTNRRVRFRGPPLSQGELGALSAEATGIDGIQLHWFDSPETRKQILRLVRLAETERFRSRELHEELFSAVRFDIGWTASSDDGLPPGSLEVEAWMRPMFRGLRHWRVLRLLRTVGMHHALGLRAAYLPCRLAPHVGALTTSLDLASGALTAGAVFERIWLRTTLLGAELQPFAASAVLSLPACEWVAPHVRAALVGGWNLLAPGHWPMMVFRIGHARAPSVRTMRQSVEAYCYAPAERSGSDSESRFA
T1 sequence (P95232 entry or part of it): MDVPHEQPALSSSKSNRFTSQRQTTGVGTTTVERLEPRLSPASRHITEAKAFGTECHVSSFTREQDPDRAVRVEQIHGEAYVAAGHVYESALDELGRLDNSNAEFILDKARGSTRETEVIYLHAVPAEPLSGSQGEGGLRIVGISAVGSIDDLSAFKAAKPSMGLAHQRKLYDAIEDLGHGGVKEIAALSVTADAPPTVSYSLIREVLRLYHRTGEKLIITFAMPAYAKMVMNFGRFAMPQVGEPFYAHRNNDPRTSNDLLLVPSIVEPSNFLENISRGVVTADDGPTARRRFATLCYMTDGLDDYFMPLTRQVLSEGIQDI

Structure (SMILES): CCCCCCCCCCCC(=O)SCCNC(=O)CCNC(=O)[C@H](O)C(C)(C)COP(=O)(O)OP(=O)(O)OC[C@H]1O[C@@H](n2cnc3c(N)ncnc32)[C@H](O)[C@@H]1OP(=O)(O)O [C12:0-CoA]
- KiS (TyzA): 450 ± 90 µM

Structure (SMILES): CCCCCCCCCCCC(=O)N[C@@H](Cc1ccc(O)cc1)C(=O)O [C12:0-L-Tyr]
- LC-QTOF endpoint assay, purified TyzA plus RHA1 pTip-TyzBC lysate (TyzC): performed ATP-dependent cyclization and O2-dependent desaturation of C12:0-L-Tyr, respectively

Structure (SMILES): Nc1ncnc2c1ncn2[C@@H]1O[C@H](COP(=O)(O)OP(=O)(O)OP(=O)(O)O)[C@@H](O)[C@H]1O [ATP]
- LC-QTOF endpoint assay, purified TyzA plus RHA1 pTip-TyzBC lysate (TyzB): performed ATP-dependent cyclization and O2-dependent desaturation of C12:0-L-Tyr, respectively
